This note sets out measurements from US20220184003A1, “Formulations of Cannabidiol Derivatives and Their Use as Modulators of Cannabinoid Receptor Type 2 (CB2)” (EMERALD HEALTH PHARMACEUTICALS INC, priority 2019, published 2022).

A short description of this data set: Log D determination (octanol / phosphate buffer pH 7.4). Conditions: octanol / 0.1 M phosphate buffer pH 7.4, pH 7.4. From the text:
Lipophilicity is a key determinant of the PK behavior of drugs. It can influence distribution into tissues, absorption and the binding characteristics of a drug, as well as being an important factor in determining the solubility of a compound. Log D (distribution co-efficient) is used as a measure of lipophilicity.
The solution was transferred to tubes, centrifuged and the supernatant is drawn off the top, leaving any solid compound in the bottom. This supernatant was then syringe filtered through 0.2 μm filters to produce the initial solution. Three vials were prepared containing values. […] The vials were mixed to equilibrium, then centrifuged to ensure the two phases were fully separated before the octanol was removed and the buffer samples analyzed. For the quantitative analysis, the aqueous solutions were analyzed by LC MS/MS. The amount of VCE-004.8 in each vial was quantified against a 6 points standard curve which was produced by serially diluting the initial solution. Log D was calculated using the equation, shown in FIG. 7, wherein ConcINITlAL is a concentration of compound in the initial aqueous solution, ConcFINAL is a concentration of compound in final aqueous phase, Vaq is a volume of aqueous phase, and Voct is a volume of octanol phase.

Regarding `C=C(C)[C@@H]1CCC(C)=C[C@H]1c1c(O)cc(CCCCC)cc1O` [CBD, cannabidiol], the logD was 5.44.
